Data on two compounds can be found in patent US20240002429A1, “PRODRUG OF 5a-HYDROXY-6ß-[2-(1H-IMIDAZOL-4-YL)ETHYLAMINO]CHOLESTAN-3ß-OL AND PHARMACEUTICAL COMPOSITIONS COMPRISING SAME FOR USE IN THE TREATMENT OF CANCER” (priority 2020, published 2024).

pIC50: −log10 of the molar value. Read-outs that look alike come from different tables or passages of the source.

Series [1] in a line: Pharmacokinetic study of DX117 (LC/MS in plasma). The series is classed as in vivo. The note with it: rat, 50 mg/kg, administered compound assayed. An excerpt:
(§1) The following study is a determination by LC/MS in plasma of the various molecules over 3 days (11 measurement points at the end). The graphs are always presented in comparison with DX101, which is the reference. […]

Series [2] deals with MCF-7 mammary tumor cells. Kind of series: Morphology of MCF-7 cells under inverted microscope. The series is classed as cell-based. As for the experimental part: A cell viability test was carried out on MCF-7 mammary tumor cells (Michigan Cancer Foundation-7) […] (ER(+) cells) containing receptors for the hormone estrogen.
The MCF-7 cells are in a cell culture medium identical to example 14 and are seeded in 12-well plates at 50000 cells per well for 24 h. 24 hours after seeding, the cells are treated with the solvate vehicle comprising water and ethanol with an ethanol ratio 1‰ and comprising 5α-hydroxy-6β-[2-(1H-imidazol-4-yl)-ethylamino]-cholestan-3β-yl propionate or 5α-hydroxy-6β-[2-(1H-imidazol-4-yl)-ethylamino]-cholestan-3β-ol at 1, 2.5 or 5 μM. The cells are observed in an inverted microscope and photographed with the microscope camera at 24 h and 48 h. The morphological changes of the cells at 1 μM are very slight.
In this test: • The white vesicles reflect cell death by cytotoxic autophagy; • The cells that become rounded reflect cell death; • The cells that become detached reflect a cytotoxic effect; • The adherent cells reflect cell survival; • The supernatant cells reflect cell death; and • The refractive cells reflect cell death.

Series [3] can be described thus: Pharmacokinetic study of DX121 (LC/MS in plasma). The series is classed as in vivo. The note with it: rat, oral 50 mg/kg, administered compound assayed.
Text: as §1

The subject of series [4] is BT-474 human mammary tumor cells. Kind of series: Cytotoxicity on BT-474 cells, trypan blue. The series is classed as cell-based. The note with it: BT-474, trypan blue, 48 h. As for the experimental part: The cellular viability tests were also carried out on BT-474 human mammary tumor cells (characterized as being positive triples HER2+, ER+, PR+). The BT-474 cells are in a cell culture medium identical to the preceding example and are seeded in 24-well plates at 70 000 cells per well, for determination of cellular viability using trypan blue, or in 96-well plates at 13 000 cells per well for determination of cellular viability using the MTT or LDH assay. After 96 hours (h) of culture in normal conditions, i.e. in an incubator at a temperature of 37° C. at 5% CO2, the BT-474 cells are treated for 48 h with DX101, DX107, and DX113 at 100 nM, 1 μM, 2.5 μM and 10 μM. A control is also carried out using the protocol described above but without treatment with the molecules DX101, DX107, DX113, DX117, DX119, DX121 or DX131.
After trypsin digestion for 10 minutes at 37° C., cell survival was quantified, also by a trypan blue assay with automatic counting with the Biorad TC20 equipment (TC20™ Automated Cell Counter). The trypan blue assay is based on the cell membrane integrity, which is broken in the dead cells. Trypan blue stains the dead cells blue. The Biorad TC20 cell counter counts the proportion of blue cells and non-blue cells, relative to the cell percentages. The percentage viability is then determined in each well relative to the untreated cells and the IC50 is determined as explained in the preceding example. The percentage viability of the BT-474 cells was determined using the MTT and LDH assay, carried out as described in the preceding example.

The next series relates to 4T1 cells. Kind of series: Cytotoxicity on 4T1 cells, MTT. The note with it: Mus musculus, 4T1, MTT, 48 h. The series is classed as cell-based, murine. As to the method: The cellular viability tests were carried out on murine mammary tumor 4T1 cells characterized as negative triples (HER2−, ER−, PR−).
For this experiment, a cell culture medium was prepared. The culture medium consists of Dulbecco's Modified Eagle Medium (DMEM, marketed by Westburg under the reference LO BE12-604F), comprising 4.5 g/L glucose with L-glutamine, to which 10% of fetal calf serum (FCS) and 50 U/mL of penicillin/streptomycin are added. The 4T1 cells are introduced into this culture medium.
96-well plates were seeded with 2000 4T1 cells per well. After 72 hours (h) of culture in normal conditions, i.e. in an incubator at a temperature of 37° C. at 5% CO2, the 4T1 cells are treated for 48 h with DX101, DX107, DX113, DX117, DX119, DX121 or DX131 at 100 nM, 1 μM, 2.5 μM and 10 μM. A control condition (CTL) is also carried out in parallel using the protocol described above but without treatment with the molecules DX101, DX107, DX113, DX117, DX119, DX121, DX131 or DX133.
Cellular viability is measured by three different methods. For the first method, MTT labeling is carried out at 48 hours. This test is based on the use of the tetrazolium salt MTT (3-(4,5-dimethylthiazol-2-yl)-2,5-diphenyltetrazolium bromide). The tetrazolium is reduced by mitochondrial succinate dehydrogenase of active living cells, to formazan, a precipitate of a violet color. The quantity of precipitate formed is proportional to the quantity of living cells but also to the metabolic activity of each cell. […] After 48 hours, the medium is aspirated, and the cells are incubated with MTT (0.5 mg/ml in culture medium) for about 3 hours. The MTT solution is aspirated and the violet crystals are dissolved in dimethylsulfoxide (DMSO). The OD (optical density) is measured at 550 nm. The percentage viability is then determined in each well relative to the CTL and the IC50 (concentration for which there are still 50% of living cells) is determined for each molecule with Prism software using the nonlinear regression straight line (log(inhibitor) vs. Response).

For `CC(C)CCC[C@@H](C)[C@H]1CC[C@H]2[C@@H]3C[C@@H](NCCc4c[nH]cn4)[C@@]4(O)C[C@@H](O)CC[C@]4(C)[C@H]3CC[C@]12C` [DX101, 5α-hydroxy-6β-[2-(1H-imidazol-4-yl)-ethylamino]-cholestan-3β-ol, reference compound], the Concentration max in series [1] and in series [3] was 150 nM each time. For the same compound, the Area under curve in series [1] (0-72 h) and in series [3] (0-72 h) was 3019 throughout. The “Morphological observations at 24 hours” value in series [2] (MCF-7, 1 μM, 24 h) is “Some white vesicles”. Also, the “Observations at 48 hours” value in series [2] (MCF-7, 5 μM, 48 h) is given as “All the cells are supernatant”.
For orientation: pIC50 means −log10 of the IC50, conventionally taken in molar units. Take `CCC(=O)O[C@H]1CC[C@]2(C)[C@H]3CC[C@]4(C)[C@@H]([C@H](C)CCCC(C)C)CC[C@H]4[C@@H]3C[C@@H](NCCc3c[nH]cn3)[C@@]2(O)C1` [DX107, 5α-hydroxy-6β-[2-(1H-imidazol-4-yl)ethylamino]cholestan-3β-yl propionate]: the “Mean LogIC50 (±SEM)” value in series [4] (log of IC50 in μM) was found to be 0.66 ± 0.04. In addition, the pIC50 is 5.34 in series [4] (Homo sapiens) and 5.42 in the series with 4T1 cells (read-out: IC50). Besides, in the series with 4T1 cells (log of IC50 in μM, read-out: Mean LogIC50 (±SEM) (converted)), the IC50 is 3.8 µM.
